{
  "source": "patent US6955806B2",
  "about": "“Ionene polymers and their use as antimicrobial agents” (Genzyme Corporation, priority 2001, dated 2005)",
  "details": "mouse, in vivo",
  "protocol": "In vivo toxicity of the polymer of Formula II was assayed in mice. Groups of 5 animals were dosed twice daily for 5 days by oral gavage at a dose of 10, 100, or 500 mg/kg body weight. Animals were assessed daily, and deaths were recorded. The dose at which ½ the animals died was considered the LD50.",
  "note": "Where two headings read alike, the source gives them in different places.",
  "data": [
    {"substance": "Poly(4,4′-trimethylenebis(1-methylpiperidinium)-alt-1,8-octane) [Formula II]", "values": [
      {"measurement": "tolerability in 5-day oral toxicity study", "setting": "10 mg/kg/day", "result": "well tolerated"},
      {"measurement": "tolerability in 5-day oral toxicity study", "setting": "100 mg/kg/day", "result": "moderate toxicity was evident"}
    ]}
  ]
}
